Measurements as given in BindingDB's records for doi:10.1021/jm991151j (Smithkline Beecham Pharmaceuticals, 2000).
Counter-ions that a name gives are not always drawn.

Legend:
[1] = target: 5-hydroxytryptamine receptor 6 (Homo sapiens, UniProt P50406)
[2] = target: 5-hydroxytryptamine receptor 1E (Homo sapiens, UniProt P28566)
[3] = target: T1, 5-hydroxytryptamine receptor 1F (Homo sapiens, UniProt P30939)
T1 sequence (P30939 whole entry): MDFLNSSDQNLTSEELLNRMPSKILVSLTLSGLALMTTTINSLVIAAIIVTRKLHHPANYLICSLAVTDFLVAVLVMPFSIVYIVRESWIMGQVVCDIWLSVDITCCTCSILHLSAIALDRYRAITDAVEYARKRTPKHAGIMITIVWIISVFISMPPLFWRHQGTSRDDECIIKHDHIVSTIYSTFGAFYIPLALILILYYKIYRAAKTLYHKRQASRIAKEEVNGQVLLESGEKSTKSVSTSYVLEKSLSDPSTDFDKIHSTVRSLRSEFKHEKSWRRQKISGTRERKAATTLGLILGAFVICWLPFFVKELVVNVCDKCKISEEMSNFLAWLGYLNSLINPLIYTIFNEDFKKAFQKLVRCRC

[4] = target: 5-hydroxytryptamine receptor 4 (Homo sapiens, UniProt Q13639)
[5] = target: T2, 5-hydroxytryptamine receptor 2C (Homo sapiens, UniProt P28335)
T2 sequence (P28335 whole entry): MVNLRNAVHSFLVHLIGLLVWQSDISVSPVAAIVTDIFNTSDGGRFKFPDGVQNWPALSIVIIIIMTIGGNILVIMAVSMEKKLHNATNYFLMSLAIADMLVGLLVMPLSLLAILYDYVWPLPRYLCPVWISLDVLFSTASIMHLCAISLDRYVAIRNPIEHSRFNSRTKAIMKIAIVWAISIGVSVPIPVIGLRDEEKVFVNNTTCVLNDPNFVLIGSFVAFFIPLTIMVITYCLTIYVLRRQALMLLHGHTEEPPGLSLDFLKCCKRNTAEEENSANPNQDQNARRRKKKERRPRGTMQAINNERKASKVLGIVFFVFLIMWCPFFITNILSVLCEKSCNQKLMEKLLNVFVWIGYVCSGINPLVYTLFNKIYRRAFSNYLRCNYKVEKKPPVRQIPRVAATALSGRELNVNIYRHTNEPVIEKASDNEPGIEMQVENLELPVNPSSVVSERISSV

[6] = target: 5-hydroxytryptamine receptor 2B (Homo sapiens, UniProt P41595)
[7] = target: T3, Alpha-1B adrenergic receptor (Homo sapiens, UniProt P35368)
T3 sequence (P35368 whole entry): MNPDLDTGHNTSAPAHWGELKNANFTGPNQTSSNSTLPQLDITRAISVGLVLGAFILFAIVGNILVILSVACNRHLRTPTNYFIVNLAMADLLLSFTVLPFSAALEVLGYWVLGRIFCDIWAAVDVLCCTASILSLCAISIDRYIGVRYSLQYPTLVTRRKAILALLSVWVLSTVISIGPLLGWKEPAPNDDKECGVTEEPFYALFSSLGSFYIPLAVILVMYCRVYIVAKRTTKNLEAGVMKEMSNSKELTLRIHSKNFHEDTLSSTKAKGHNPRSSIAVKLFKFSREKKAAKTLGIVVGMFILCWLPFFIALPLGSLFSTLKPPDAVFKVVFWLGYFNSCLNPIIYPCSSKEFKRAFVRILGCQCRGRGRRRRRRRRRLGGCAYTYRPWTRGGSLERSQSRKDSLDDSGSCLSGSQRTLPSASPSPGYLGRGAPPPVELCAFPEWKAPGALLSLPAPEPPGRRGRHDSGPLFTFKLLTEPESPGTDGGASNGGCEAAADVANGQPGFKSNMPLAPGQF

5-hydroxytryptamine receptor 1E, sequence (P28566 whole entry): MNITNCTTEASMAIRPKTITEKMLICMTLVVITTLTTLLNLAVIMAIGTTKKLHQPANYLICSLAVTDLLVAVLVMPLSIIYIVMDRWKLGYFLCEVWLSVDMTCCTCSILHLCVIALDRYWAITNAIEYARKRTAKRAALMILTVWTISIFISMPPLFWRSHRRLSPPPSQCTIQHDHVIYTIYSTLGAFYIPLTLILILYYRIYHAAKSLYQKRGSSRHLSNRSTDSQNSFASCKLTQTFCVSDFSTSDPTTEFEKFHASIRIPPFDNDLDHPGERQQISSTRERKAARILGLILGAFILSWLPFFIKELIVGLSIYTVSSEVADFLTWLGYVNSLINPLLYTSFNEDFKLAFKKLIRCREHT
5-hydroxytryptamine receptor 4, sequence (Q13639 whole entry): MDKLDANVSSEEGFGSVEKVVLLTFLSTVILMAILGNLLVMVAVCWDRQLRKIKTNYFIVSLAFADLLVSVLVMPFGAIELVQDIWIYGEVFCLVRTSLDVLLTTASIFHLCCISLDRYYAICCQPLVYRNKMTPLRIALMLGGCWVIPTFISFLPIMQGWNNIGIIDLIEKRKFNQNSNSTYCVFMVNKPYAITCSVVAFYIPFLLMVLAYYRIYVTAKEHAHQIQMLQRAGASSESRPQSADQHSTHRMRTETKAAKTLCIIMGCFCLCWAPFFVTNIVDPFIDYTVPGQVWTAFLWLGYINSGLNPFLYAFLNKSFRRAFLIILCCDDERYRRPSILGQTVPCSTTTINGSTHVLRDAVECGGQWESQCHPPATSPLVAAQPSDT
5-hydroxytryptamine receptor 2B, sequence (P41595 whole entry): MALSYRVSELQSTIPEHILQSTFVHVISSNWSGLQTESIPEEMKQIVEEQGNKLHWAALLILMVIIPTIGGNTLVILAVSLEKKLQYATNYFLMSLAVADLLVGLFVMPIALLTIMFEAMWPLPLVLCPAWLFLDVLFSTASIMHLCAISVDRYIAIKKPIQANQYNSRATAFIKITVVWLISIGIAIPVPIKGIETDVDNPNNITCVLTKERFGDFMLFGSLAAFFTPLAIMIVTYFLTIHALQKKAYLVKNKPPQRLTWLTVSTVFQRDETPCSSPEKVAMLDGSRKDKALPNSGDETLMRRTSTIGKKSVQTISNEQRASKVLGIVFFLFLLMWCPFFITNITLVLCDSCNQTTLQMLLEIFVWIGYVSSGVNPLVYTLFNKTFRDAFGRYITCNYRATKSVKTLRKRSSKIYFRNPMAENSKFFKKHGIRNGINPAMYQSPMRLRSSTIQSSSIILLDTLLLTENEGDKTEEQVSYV
5-hydroxytryptamine receptor 6, sequence (P50406 whole entry): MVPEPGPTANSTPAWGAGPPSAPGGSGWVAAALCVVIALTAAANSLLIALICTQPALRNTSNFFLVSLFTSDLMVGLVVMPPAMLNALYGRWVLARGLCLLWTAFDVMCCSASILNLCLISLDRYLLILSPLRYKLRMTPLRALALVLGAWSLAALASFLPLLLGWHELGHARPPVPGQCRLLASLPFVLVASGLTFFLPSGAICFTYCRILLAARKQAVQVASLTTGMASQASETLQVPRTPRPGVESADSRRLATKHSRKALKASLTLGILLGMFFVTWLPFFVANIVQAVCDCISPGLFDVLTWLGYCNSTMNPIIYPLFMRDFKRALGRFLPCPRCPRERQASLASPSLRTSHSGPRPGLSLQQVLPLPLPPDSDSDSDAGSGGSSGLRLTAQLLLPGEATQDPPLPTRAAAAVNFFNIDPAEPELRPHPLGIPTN

SMILES | Ki [1] | Ki [2] | Ki [3] | Ki [4] | Ki [5] | Ki [6] | Ki [7]
COc1cccc(S(=O)(=O)N2CCC[C@@H]2CCN2CCC(C)CC2)c1 [(R)-1-(2-(1-(3-methoxy-benzenesulfonyl)-pyrrolidin-2-yl)-ethyl-4-methylpiperidine] | > 10 µM |  |  |  |  |  | 
CC1CCN(CC[C@H]2CCCN2S(=O)(=O)c2cccc3ccccc23)CC1 [(R)-4-Methyl-1-(2-(1-(naphthalene-1-sulfonyl)-pyrrolidin-2-yl)-ethyl)-piperidine(10)] |  | > 10 µM | > 10 µM |  |  |  | 
CC1CCN(CC[C@H]2CCCN2S(=O)(=O)c2cccc(Br)c2)CC1 [(R)-1-(2-(1-(3-bromo-benzenesulfonyl)-pyrrolidin-2-yl)-ethyl)-4-methyl piperidine] |  | 2.51 µM | 5.01 µM | 6.31 µM | 5.01 µM | 1.58 µM | 
Cc1cccc(S(=O)(=O)N2CCC[C@@H]2CCN2CCC(C)CC2)c1 [(R)-4-Methyl-1-(2-(1-toluene-3-sulfonyl)-pyrrolidin-2-yl)-ethyl)-piperidine (Oxalate salt)] |  | > 10 µM | > 10 µM | > 10 µM |  | 2.51 µM | 
CC1CCN(CC[C@H]2CCCN2S(=O)(=O)c2cccc(O)c2)CC1 [(R)-3-(2-(2-(4-methylpiperidin-1-yl)ethyl)pyrrolidine-1-sulfonyl)phenol] |  |  | 3.16 µM |  |  |  | > 10 µM
CC1CCN(CC[C@H]2CCCN2S(=O)(=O)c2ccc(Cl)c(Cl)c2)CC1 [(R)-1-(2-(1-(3,4-Dichloro-benzenesulfonyl)-pyrrolidin-2-yl)-ethyl)-4-methyl piperidine] |  |  | 3.16 µM | 3.16 µM |  |  | 
